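Assay format: 96-well plates, 48-hour exposure. TGI marks complete inhibition of growth.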
Tests used:
Experiment in all cases: NCI tumour cell line growth inhibition, 48 h
A498 renal = tested on: A498 renal
CAKI-1 renal = tested on: CAKI-1 renal
HCT-15 colon = tested on: HCT-15 colon
LOX IMVI melanoma = tested on: LOX IMVI melanoma
MDA-MB-435 = tested on: MDA-MB-435
SK-MEL-2 melanoma = tested on: SK-MEL-2 melanoma
SNB-75 CNS = tested on: SNB-75 CNS
T-47D breast = tested on: T-47D breast
UACC-62 melanoma = tested on: UACC-62 melanoma
BT-549 breast = tested on: BT-549 breast

Compound | TGI (A498 renal) | TGI (CAKI-1 renal) | TGI (HCT-15 colon) | TGI (LOX IMVI melanoma) | TGI (MDA-MB-435) | TGI (SK-MEL-2 melanoma) | TGI (SNB-75 CNS) | TGI (T-47D breast) | TGI (UACC-62 melanoma) | TGI (BT-549 breast)
N#CC12CC(C=O)=C(N)C1(C#N)CC(C=O)=C2N (centres undefined) | > 100 µM | > 100 µM | 38.5 µM | > 100 µM | > 100 µM | 76.3 µM | > 100 µM | > 100 µM | > 100 µM | –
CC(C)CC(C#CCCOC(=O)c1ccccc1)OC(=O)c1ccccc1 (centres undefined) | > 10 µM | – | > 10 µM | > 10 µM | > 10 µM | > 10 µM | > 10 µM | > 10 µM | > 10 µM | > 10 µM
COc1nc2c(c(=O)[nH]1)N=C(c1ccccc1)CC(c1ccccc1)N2 (centres undefined) | > 100 µM | > 100 µM | – | > 100 µM | > 100 µM | > 100 µM | 52.5 µM | – | > 100 µM | > 100 µM
CCc1cc2c(cc1C(=O)CCC(=O)O)CC1(C2)Cc2cc(CC)c(C(=O)CCC(=O)O)cc2C1 | > 100 µM | > 100 µM | > 100 µM | > 100 µM | > 100 µM | > 100 µM | > 100 µM | > 100 µM | – | –
NS(=O)(=O)c1ccc(N=Nc2ccc(O)cc2)cc1 | > 100 µM | > 100 µM | > 100 µM | > 100 µM | > 100 µM | > 100 µM | 88.9 µM | > 100 µM | – | 62.5 µM
COC(=O)[C@H](Cc1ccccc1)NC(=O)OCC1OC(n2cc(C)c(=O)[nH]c2=O)CC1N=[N+]=[N-] (some centres undefined) | – | > 100 µM | > 100 µM | > 100 µM | > 100 µM | > 100 µM | > 100 µM | > 100 µM | > 100 µM | > 100 µM
CC(=O)OCCCCn1nncc1Cn1ccc(=O)n(Cc2cnnn2CCCCOC(C)=O)c1=O | > 100 µM | > 100 µM | > 100 µM | > 100 µM | > 100 µM | > 100 µM | > 100 µM | > 100 µM | – | > 100 µM
CCCNC(=O)Cn1c2c(c3ccccc31)CCCC2 | > 100 µM | > 100 µM | > 100 µM | > 100 µM | > 100 µM | > 100 µM | – | – | > 100 µM | > 100 µM
O=c1c2ccccc2ncn1COCc1ccccc1 | > 100 µM | – | > 100 µM | > 100 µM | > 100 µM | > 100 µM | – | – | > 100 µM | –
Fc1ccccc1-c1cc(=S)c2cc3c(cc2[nH]1)OCO3 | > 100 µM | > 100 µM | > 100 µM | > 100 µM | > 23.6 µM | > 76.7 µM | – | > 100 µM | > 30 µM | > 100 µM
CC(C)(C)OC(=O)NCC(c1c[nH]c2cc(Br)ccc12)c1c[nH]c2cc(Br)ccc12 | – | 91.5 µM | 30.2 µM | 32.2 µM | 31.9 µM | 34 µM | 49.6 µM | 35.2 µM | 30.1 µM | 30.3 µM
CCOC(=O)NC(=O)c1cn(CCN(CCO)C(=O)NCCCCCCNC(=O)N(CCO)CCn2cc(C(=O)NC(=O)OCC)c(=O)[nH]c2=O)c(=O)[nH]c1=O | > 100 µM | > 100 µM | > 100 µM | > 100 µM | – | > 100 µM | > 100 µM | – | > 100 µM | –
Cc1cn(C(CO)OC(CO)CN(O)C2C3CC4CC(C3)CC2C4)c(=O)[nH]c1=O (centres undefined) | > 100 µM | > 100 µM | > 100 µM | – | > 100 µM | > 100 µM | > 100 µM | > 100 µM | > 100 µM | > 100 µM
O=C([O-])c1ccccc1Nc1ccccc1C(=O)[O-].[OH3+].[Zn+2] | 44.7 µM | 8.45 µM | > 100 µM | 44.9 µM | – | 40.4 µM | 37.2 µM | – | 39.9 µM | –
COc1cc2c(c(OC)c1OC)-c1ccc(OC)c(=O)cc1C(NC(=O)CCCCCNc1ccc(N=[N+]=[N-])cc1[N+](=O)[O-])CC2 (centres undefined) | – | 18.4 µM | 0.245 µM | 9.55 µM | < 0.01 µM | < 0.01 µM | – | > 31.6 µM | < 0.01 µM | –
Cc1ccc(C(=O)C2C=C(c3ccc(C)cc3)SC3C=CCC32)cc1 (centres undefined) | 58.4 µM | 42.4 µM | 47.9 µM | 39.5 µM | 30 µM | 36.8 µM | – | 50.6 µM | 38.8 µM | 37.3 µM
N/C(=C\c1ccc(/C=C(\NC(=O)c2ccccc2)c2nc3c([nH]2)C(=O)c2ccccc2C3=O)cc1)c1nc2c([nH]1)C(=O)c1ccccc1C2=O | 29.9 µM | 60.7 µM | 37.7 µM | 47.1 µM | – | – | 18.8 µM | – | 27.8 µM | –
CC1(C)CC[C@]2(C)[C@@H](O)C[C@]3(C)C(=CC[C@@H]4[C@@]5(C)CC[C@H](O)C(C)(C)[C@@H]5CC[C@]43C)[C@@H]2C1 | 99.2 µM | > 100 µM | > 100 µM | 46.1 µM | > 100 µM | 80.7 µM | – | 67.7 µM | > 100 µM | > 100 µM
C=CC(=C)CCC(Br)C(C)(C)Br (centres undefined) | – | – | > 100 µM | – | > 100 µM | > 100 µM | > 100 µM | > 100 µM | > 100 µM | > 100 µM
CN1/C(=C\N=O)C(C)(C)N(O)C1(C)C | – | > 100 µM | > 100 µM | > 100 µM | > 100 µM | > 100 µM | > 100 µM | > 100 µM | > 100 µM | > 100 µM
COC(=O)CC(C(C(=O)OCc1ccccc1)C(C)O)N1C(=O)OCC1c1ccccc1 (centres undefined) | > 100 µM | – | > 100 µM | > 100 µM | – | > 100 µM | 89.8 µM | – | > 100 µM | –
Cc1cc2c3c(nc2c2cc[nH]c(C)c12)CCCC3 | – | – | 3.54 µM | 4.69 µM | 3.63 µM | 3.2 µM | 4.02 µM | 4.53 µM | 3.32 µM | –
CN(CCO)CCC1COc2ccccc2O1 (centres undefined) | > 10 µM | > 10 µM | > 10 µM | > 10 µM | > 10 µM | > 10 µM | > 10 µM | > 10 µM | > 10 µM | –
Nc1nncc2n[nH]nc12 | > 100 µM | > 100 µM | > 100 µM | – | > 100 µM | > 100 µM | > 100 µM | > 100 µM | > 100 µM | > 100 µM

Reference: PubChem BioAssay (NCI)
